The values below come from patent publication US9999622B2, “Pyrazolothiazole compound and medicine comprising same” (NIPPON SHINYAKU CO., LTD., priority 2014, dated 2018).

Where a name gives a salt, the structure may show the parent alone.

Type in all cases: biochemical
One assay addresses T1, JAK1 (Homo sapiens, UniProt P23458).
T1 construct: purchased Carna Biosciences, Inc
The assay can be described thus: JAK tyrosine kinase inhibitory activity in the presence of 1 mM ATP (ELISA), JAK1. The essentials: (§1)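 Recombinant kinase (7.5 nM JAK1; 0.75 nM JAK2, JAK3 working dilutions) reacted 1 h at 30 °C with 1 mM ATP in Tris-HCl pH 7.5, Tween-20, DTT, on streptavidin plates. Phosphotyrosine detected by HRP anti-pTyr antibody ELISA, TMB absorbance at 450 nm; duplicate wells, DMSO as negative control.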

In another assay the target is T2, JAK3 (Homo sapiens, UniProt P52333).
T2 construct: purchased Carna Biosciences, Inc
T2 sequence (P52333 1-1124): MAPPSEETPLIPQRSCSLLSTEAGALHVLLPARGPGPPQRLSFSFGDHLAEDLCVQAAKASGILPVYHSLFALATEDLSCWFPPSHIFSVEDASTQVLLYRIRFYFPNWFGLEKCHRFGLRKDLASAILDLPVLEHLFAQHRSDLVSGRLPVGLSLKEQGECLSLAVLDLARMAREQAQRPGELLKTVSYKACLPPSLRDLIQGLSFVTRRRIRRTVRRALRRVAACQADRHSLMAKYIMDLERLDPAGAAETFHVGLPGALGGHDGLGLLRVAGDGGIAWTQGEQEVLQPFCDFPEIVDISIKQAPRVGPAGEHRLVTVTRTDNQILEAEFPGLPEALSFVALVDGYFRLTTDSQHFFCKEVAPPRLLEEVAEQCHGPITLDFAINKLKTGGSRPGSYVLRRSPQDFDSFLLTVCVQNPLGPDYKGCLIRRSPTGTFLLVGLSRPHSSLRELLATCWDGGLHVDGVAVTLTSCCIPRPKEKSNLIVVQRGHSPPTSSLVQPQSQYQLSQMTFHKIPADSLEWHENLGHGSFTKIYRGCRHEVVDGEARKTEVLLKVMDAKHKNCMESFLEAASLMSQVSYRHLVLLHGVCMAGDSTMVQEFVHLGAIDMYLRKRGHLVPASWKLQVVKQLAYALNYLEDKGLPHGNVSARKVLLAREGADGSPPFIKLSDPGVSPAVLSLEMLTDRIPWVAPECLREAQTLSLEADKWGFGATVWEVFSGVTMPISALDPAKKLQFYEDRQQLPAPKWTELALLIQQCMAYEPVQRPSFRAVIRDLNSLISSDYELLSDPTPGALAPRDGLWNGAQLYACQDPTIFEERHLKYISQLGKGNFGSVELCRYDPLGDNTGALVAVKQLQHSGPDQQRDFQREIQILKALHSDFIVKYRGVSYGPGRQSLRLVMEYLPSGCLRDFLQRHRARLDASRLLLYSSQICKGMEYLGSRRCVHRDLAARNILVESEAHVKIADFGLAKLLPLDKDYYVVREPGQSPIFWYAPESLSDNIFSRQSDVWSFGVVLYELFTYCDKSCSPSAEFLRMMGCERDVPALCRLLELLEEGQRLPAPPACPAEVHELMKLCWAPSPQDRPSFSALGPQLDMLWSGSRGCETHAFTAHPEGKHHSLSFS
Description: JAK tyrosine kinase inhibitory activity in the presence of 1 mM ATP (ELISA), JAK3. The procedure, abridged: as §1

A further assay has as its target T3, JAK2 (Homo sapiens, UniProt O60674).
T3 construct: purchased Carna Biosciences, Inc
The assay can be described thus: JAK tyrosine kinase inhibitory activity in the presence of 1 mM ATP (ELISA), JAK2. The procedure, abridged:
as §1

T3 sequence (O60674 whole entry): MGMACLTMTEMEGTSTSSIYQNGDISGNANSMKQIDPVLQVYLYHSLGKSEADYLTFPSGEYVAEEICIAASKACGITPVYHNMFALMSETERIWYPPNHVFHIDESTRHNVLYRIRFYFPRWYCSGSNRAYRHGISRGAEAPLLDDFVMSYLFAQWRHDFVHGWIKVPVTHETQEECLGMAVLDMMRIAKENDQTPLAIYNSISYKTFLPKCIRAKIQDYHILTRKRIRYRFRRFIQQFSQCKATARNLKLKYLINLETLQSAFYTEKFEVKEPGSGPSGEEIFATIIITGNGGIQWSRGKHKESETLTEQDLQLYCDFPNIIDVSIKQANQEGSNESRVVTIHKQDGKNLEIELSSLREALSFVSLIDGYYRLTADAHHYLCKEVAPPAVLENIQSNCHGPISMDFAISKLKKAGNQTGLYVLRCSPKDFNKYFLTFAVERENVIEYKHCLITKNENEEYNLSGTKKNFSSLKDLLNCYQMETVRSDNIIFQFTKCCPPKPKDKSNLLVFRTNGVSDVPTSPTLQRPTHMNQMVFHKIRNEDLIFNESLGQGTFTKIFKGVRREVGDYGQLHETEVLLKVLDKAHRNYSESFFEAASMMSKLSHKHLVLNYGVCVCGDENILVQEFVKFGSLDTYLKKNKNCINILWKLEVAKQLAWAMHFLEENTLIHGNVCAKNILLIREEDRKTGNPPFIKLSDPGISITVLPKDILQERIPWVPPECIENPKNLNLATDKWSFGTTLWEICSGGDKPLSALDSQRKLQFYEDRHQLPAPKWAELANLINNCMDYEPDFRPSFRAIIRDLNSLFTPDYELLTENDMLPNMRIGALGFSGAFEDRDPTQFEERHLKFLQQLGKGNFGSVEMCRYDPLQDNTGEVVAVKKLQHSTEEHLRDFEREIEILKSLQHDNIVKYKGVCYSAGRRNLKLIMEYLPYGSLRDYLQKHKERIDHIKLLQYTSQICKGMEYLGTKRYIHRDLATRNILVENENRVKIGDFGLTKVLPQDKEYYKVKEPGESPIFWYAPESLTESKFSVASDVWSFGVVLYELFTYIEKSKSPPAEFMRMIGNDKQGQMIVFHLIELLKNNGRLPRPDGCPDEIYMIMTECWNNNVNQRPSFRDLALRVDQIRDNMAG
T1 sequence (P23458 whole entry): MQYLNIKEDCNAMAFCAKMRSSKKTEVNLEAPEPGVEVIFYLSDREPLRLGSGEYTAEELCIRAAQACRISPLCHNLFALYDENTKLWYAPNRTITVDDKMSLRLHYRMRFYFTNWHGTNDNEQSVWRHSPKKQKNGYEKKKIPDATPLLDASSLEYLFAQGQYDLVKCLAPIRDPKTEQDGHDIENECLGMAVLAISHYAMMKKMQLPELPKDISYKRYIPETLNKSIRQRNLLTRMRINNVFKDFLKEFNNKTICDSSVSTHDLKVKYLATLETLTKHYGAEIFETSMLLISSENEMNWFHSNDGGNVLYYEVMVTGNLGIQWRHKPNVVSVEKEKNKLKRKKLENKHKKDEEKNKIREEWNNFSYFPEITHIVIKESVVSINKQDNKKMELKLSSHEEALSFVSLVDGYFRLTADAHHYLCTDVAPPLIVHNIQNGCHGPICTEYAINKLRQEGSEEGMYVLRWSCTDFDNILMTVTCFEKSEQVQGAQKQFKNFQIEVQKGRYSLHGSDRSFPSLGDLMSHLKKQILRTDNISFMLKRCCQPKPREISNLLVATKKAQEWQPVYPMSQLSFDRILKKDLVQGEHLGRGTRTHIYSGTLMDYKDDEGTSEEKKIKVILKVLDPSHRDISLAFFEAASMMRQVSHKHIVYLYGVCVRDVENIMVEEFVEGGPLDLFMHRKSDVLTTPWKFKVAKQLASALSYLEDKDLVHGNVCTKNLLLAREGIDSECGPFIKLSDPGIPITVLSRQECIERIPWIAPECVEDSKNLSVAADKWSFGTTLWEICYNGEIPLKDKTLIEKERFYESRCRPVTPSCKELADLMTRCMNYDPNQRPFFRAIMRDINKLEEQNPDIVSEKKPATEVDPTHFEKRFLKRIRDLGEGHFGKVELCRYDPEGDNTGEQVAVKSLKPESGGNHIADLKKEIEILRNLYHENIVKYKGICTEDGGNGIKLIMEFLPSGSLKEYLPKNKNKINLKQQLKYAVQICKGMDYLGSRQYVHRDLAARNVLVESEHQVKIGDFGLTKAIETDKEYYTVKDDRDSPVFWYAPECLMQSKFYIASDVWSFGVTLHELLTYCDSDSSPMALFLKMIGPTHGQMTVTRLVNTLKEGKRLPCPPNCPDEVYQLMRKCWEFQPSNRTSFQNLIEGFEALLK

On to `CCC(=O)NC1CCN(C(=O)c2cc(N[C@@H]3CCN(C(=O)CC#N)C3)nc(-c3cnn4ccsc34)n2)CC1` [Example 202, N-1-[6-[(3R)-1-(cyanoacetyl)pyrrolidin-3-yl]amino-2-(pyrazolo[5,1-b][1,3]thiazol-7-yl)pyrimidine-4-carbonyl]piperidin-4-ylpropanamide], for which the IC50 was 300 nM on JAK1, > 10000 nM at JAK3 and > 10000 nM at JAK2.
For the compound `CCOC(=O)NC1CCN(C(=O)c2cc(NC(C)(C)C)nc(-c3cnn4ccsc34)n2)CC1` [Example 71, Ethyl (1-{[6-(tert-butylamino)-2-(pyrazolo[5,1-b][1,3]thiazol-7-yl)pyrimidin-4-yl]carbonyl}piperidin-4-yl)carbamate], the half-inhibitory concentration (IC50) on JAK1 came to 200 nM; on JAK3, 4000 nM; at JAK2, 3700 nM.
Taken in the same sequence, the figures for `COCC(=O)NC1CCN(C(=O)c2cc(N[C@H](C)C(C)(C)C)nc(-c3cnn4ccsc34)n2)CC1` [Example 93, N-(1-{[6-{[(2R)-3,3-Dimethylbutan-2-yl]amino}-2-(pyrazolo[5,1-b][1,3]thiazol-7-yl)pyrimidin-4-yl]carbonyl}piperidin-4-yl)-2-methoxyacetamide] were 40 nM, 1000 nM and 1200 nM.
`COC(=O)NC1CCN(C(=O)c2cc(NCC3CCN(S(C)(=O)=O)CC3)nc(-c3cnn4ccsc34)n2)CC1` [Example 175, Methyl 1-[6-([1-(methanesulfonyl)piperidin-4-yl]methylamino)-2-(pyrazolo[5,1-b][1,3]thiazol-7-yl)pyrimidine-4-carbonyl]piperidin 4-ylcarbamate]: the results for the IC50 on JAK1, on JAK3 and on JAK2 were 96 nM, > 10000 nM and > 10000 nM, respectively.
As to `O=C(NC1CCN(C(=O)c2cc(N[C@H]3CCC[C@@H]3OC(F)F)nc(-c3cnn4ccsc34)n2)CC1)C1CC1` [Example 14, N-(1-{[6-{[(1S,2S)-2-(Difluoromethoxy)cyclopentyl]amino}-2-(pyrazolo[5,1-b][1,3]thiazol-7-yl)pyrimidin-4-yl]carbonyl}piperidin-4-yl)cyclopropanecarboxamide], the IC50 on JAK1 is 69 nM; at JAK3, 1500 nM; on JAK2, 1700 nM.
Consider `O=C(NC1CCN(C(=O)c2cc(NC3CCNCC3)nc(-c3cnn4ccsc34)n2)CC1)C1CC1` [Example 181, N-(1-6-[(piperidin-4-yl)amino]-2-(pyrazolo[5,1-b][1,3]thiazol-7-yl)pyrimidine-4-carbonylpiperidin-4-yl)cyclopropanecarboxamide dihydrochloride], for which the IC50 is 860 nM on JAK1, > 10000 nM on JAK3 and > 10000 nM at JAK2.
As to `COC(=O)NC1CCN(C(=O)c2cc(N[C@H]3CCNC3)nc(-c3cnn4ccsc34)n2)CC1` [Example 149, Methyl [1-({2-(pyrazolo[5,1-b][1,3]thiazol-7-yl)-6-[(3S)-pyrrolidin-3-ylamino]pyrimidin-4-yl}carbonyl)piperidin-4-yl]carbamate dihydrochloride], the IC50 is 1000 nM on JAK1, > 10000 nM on JAK3 and > 10000 nM at JAK2.
`CCOc1c(N[C@@H](C)C2CC2)nc(-c2cnn3ccsc23)nc1C(=O)N1CCC(NC(=O)OC)CC1` [Example 154, Methyl (1-{[6-{[(1S)-1-cyclopropylethyl]amino}-5-ethoxy-2-(pyrazolo[5,1-b][1,3]thiazol-7-yl)pyrimidin-4-yl]carbonyl}piperidin-4-yl)carbamate]: the IC50 came out at 180 nM on JAK1, 3100 nM at JAK3 and 5300 nM at JAK2.
Taken in the same sequence, the figures for `O=C(NC1CCN(C(=O)c2cc(NCC3(COC(F)F)CCOCC3)nc(-c3cnn4ccsc34)n2)CC1)C1CC1` [Example 11, N-[1-({6-[({4-[(Difluoromethoxy)methyl]tetrahydro-2H-pyran-4-yl}methyl)amino]-2-(pyrazolo[5,1-b][1,3]thiazol-7-yl)pyrimidin-4-yl}carbonyl)piperidin-4-yl]cyclopropanecarboxamide] were 21 nM, 4800 nM and 2500 nM.
With `CCN(c1cc(C(=O)N2CCC(O)CC2)nc(-c2cnn3ccsc23)n1)C(C)(C)C` [Example 133, {6-[tert-Butyl(ethyl)amino]-2-(pyrazolo[5,1-b][1,3]thiazol-7-yl)pyrimidin-4-yl}(4-hydroxypiperidin-1-yl)methanone], the IC50 was 2900 nM on JAK1, > 10000 nM at JAK3 and > 10000 nM at JAK2.
For `O=C(NC1CCN(C(=O)c2cc(NCC3(COC(F)F)CC3)nc(-c3cnn4ccsc34)n2)CC1)C1CC1` [Example 8, N-[1-({6-[({1-[(Difluoromethoxy)methyl]cyclopropyl}methyl)amino]-2-(pyrazolo[5,1-b][1,3]thiazol-7-yl)pyrimidin-4-yl}carbonyl)piperidin-4-yl]cyclopropanecarboxamide], the half-inhibitory concentration (IC50) at JAK1 amounted to 52 nM; on JAK3, 3800 nM; at JAK2 it was 2400 nM.
Consider `C[C@@H](Nc1cc(C(=O)N2CCC(NC(=O)C3CCCCC3)CC2)nc(-c2cnn3ccsc23)n1)C(C)(C)C` [Example 182, N-1-[6-[(2R)-3,3-dimethylbutan-2-yl]amino-2-(pyrazolo[5,1-b][1,3]thiazol-7-yl)pyrimidine-4-carbonyl]piperidin-4-ylcyclohexanecarboxamide], for which the IC50 stood at 88 nM at JAK1, 1700 nM on JAK3 and 5400 nM at JAK2.
With `C[C@H](Nc1cc(C(=O)N2CCC(NC(=O)OCC(F)F)CC2)nc(-c2cnn3ccsc23)n1)C1CC1` [Example 98, 2,2-Difluoroethyl (l-{[6-{[(1S)-1-cyclopropylethyl]amino}-2-(pyrazolo[5,1-b][1,3]thiazol-7-yl)pyrimidin-4-yl]carbonyl}piperidin-4-yl)carbamate], the IC50 at JAK1 amounted to 37 nM; at JAK3, 1400 nM; at JAK2, 1400 nM.
As to `C[C@@H](Nc1cc(C(=O)N2CCC(NC(=O)OC(C)(C)C)CC2)nc(-c2cnn3ccsc23)n1)C(C)(C)C` [Example 100, tert-Butyl (1-{[6-{[(2R)-3,3-dimethylbutan-2-yl]amino}-2-(pyrazolo[5,1-b][1,3]thiazol-7-yl)pyrimidin-4-yl]carbonyl}piperidin-4-yl)carbamate], the concentration for half-maximal inhibition (IC50) was determined as 140 nM at JAK1, 3400 nM on JAK3 and 3000 nM on JAK2.
In the case of `COC(=O)NC1CCN(C(=O)c2cc(NCCC3CC3)nc(-c3cnn4ccsc34)n2)CC1` [Example 163, Methyl (1-6-[(2-cyclopropylethyl)amino]-2-(pyrazolo[5,1-b][1,3]thiazol-7-yl)pyrimidine-4-carbonylpiperidin-4-yl)carbamate], the IC50 at JAK1 was 450 nM; on JAK3, 5600 nM; on JAK2 it was > 10000 nM.
In the case of `CC(C)C(=O)NC1CCN(C(=O)c2cc(N[C@H](C)c3ccc(F)cc3)nc(-c3cnn4ccsc34)n2)CC1` [Example 79, N-(1-{[6-{[(1R)-1-(4-Fluorophenyl)ethyl]amino}-2-(pyrazolo[5,1-b][1,3]thiazol-7-yl)pyrimidin-4-yl]carbonyl}piperidin-4-yl)-2-methylpropanamide], the figures for the IC50 on JAK1, on JAK3 and at JAK2 were 870 nM, > 10000 nM and 3300 nM, respectively.
